From patent publication US8148367B2 (Takeda Pharmaceutical Company Limited, priority 2008, dated 2012)

Biological target: T1, Recombinant human renin (Homo sapiens, UniProt P00797)
T1 construct: isolate the active form (residues 67-406); made in house; host or cells: FreeStyle 293-F cells, transient expression of pcDNA3.1(+)/hREN
T1 sequence (P00797 67-406): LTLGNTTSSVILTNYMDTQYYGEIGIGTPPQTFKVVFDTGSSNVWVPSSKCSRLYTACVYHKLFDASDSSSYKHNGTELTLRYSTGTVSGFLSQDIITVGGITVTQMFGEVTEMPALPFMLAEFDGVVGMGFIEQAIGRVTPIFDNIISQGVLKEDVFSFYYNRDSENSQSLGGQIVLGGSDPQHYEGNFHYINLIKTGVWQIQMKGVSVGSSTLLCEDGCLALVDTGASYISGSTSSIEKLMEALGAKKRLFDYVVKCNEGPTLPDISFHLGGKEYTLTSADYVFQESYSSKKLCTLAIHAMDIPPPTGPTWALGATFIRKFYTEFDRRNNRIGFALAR
Assay: In vitro enzymatic activity assay of renin inhibitors (fluorescence, QXL520/HiLyteFluo488 peptide substrate)
Assay type: biochemical
Conditions: recombinant human renin 3 nM, 1 μM substrate, pre-incubated 10 minutes at 37° C., incubation one hour, pH 7.4, 5% DMSO; read-out: IC50 of Exemplified Compounds Against Renin

| IC50 | Structure (SMILES) |
| --- | --- |
| < 100 nM | CC(=O)Nc1ccccc1-n1c(-c2ccccc2)c(C(=O)N2CCNC[C@H]2Cc2ccccc2)[nH]c1=O [Example 122, (R)—N-(2-(4-(2-Benzylpiperazine-1-carbonyl)-2-oxo-5-phenyl-2,3-dihydro-1H-imidazol-1-yl)phenyl)acetamide] |
| 500 to 1000 nM | COc1ccc(C(=O)NCCn2c(C(=O)N3CCNCC3)c(-c3ccccc3)n(-c3ccccc3C)c2=O)cc1 [Example 235, 4-Methoxy-N-(2-(2-oxo-4-phenyl-5-(piperazine-1-carbonyl)-3-o-tolyl-2,3-dihydro-1H-imidazol-1-yl)ethyl)benzamide] |
| > 1000 nM | COc1ccccc1-n1c(-c2ccccc2)c(C(=O)N2CCNCC2)n(CCCNC(=O)CC(C)C)c1=O [Example 167, N-(3-(3-(2-Methoxyphenyl)-2-oxo-4-phenyl-5-(piperazine-1-carbonyl)-2,3-dihydro-1H-imidazol-1-yl)propyl)-3-methylbutanamide] |
| 100 to 500 nM | COc1cccc(S(=O)(=O)NCCCn2c(C(=O)N3CCNCC3)c(-c3ccccc3)n(-c3ccccc3C)c2=O)c1 [Example 221, 3-Methoxy-N-(3-(2-oxo-4-phenyl-5-(piperazine-1-carbonyl)-3-o-tolyl-2,3-dihydro-1H-imidazol-1-yl)propyl)benzenesulfonamide] |
| > 1000 nM | CC1CN(C(=O)c2[nH]c(=O)n(C3CCCCC3)c2-c2ccccc2)C(C)CN1 (centres unmarked) [Example 41, 1-Cyclohexyl-4-(2,5-dimethylpiperazine-1-carbonyl)-5-phenyl-1H-imidazol-2(3H)-one] |
| 500 to 1000 nM | Cc1ccccc1-n1c(-c2ccccc2)c(C(=O)N2CCNCC2)n(CCNS(=O)(=O)C(C)C)c1=O [Example 206, N-(2-(2-Oxo-4-phenyl-5-(piperazine-1-carbonyl)-3-o-tolyl-2,3-dihydro-1H-imidazol-1-yl)ethyl)propane-2-sulfonamide] |
| 100 to 500 nM | Cc1ccccc1-n1c(-c2ccccc2)c(C(=O)N2CCNCC2)n(CCCNS(=O)(=O)c2ccccc2)c1=O [Example 162, N-(3-(2-oxo-4-Phenyl-5-(piperazine-1-carbonyl)-3-o-tolyl-2,3-dihydro-1H-imidazol-1-yl)propyl)benzenesulfonamide] |
| 100 to 500 nM | CCCC(=O)Nc1ccccc1-n1c(-c2ccccc2)c(C(=O)N2CCNC[C@H]2Cc2ccccc2)[nH]c1=O [Example 121, (R)—N-(2-(4-(2-Benzylpiperazine-1-carbonyl)-2-oxo-5-phenyl-2,3-dihydro-1H-imidazol-1-yl)phenyl)butyramide] |
| > 1000 nM | COCCOc1ccccc1-n1c(-c2ccccc2)c(C(=O)N2CCNCC2)[nH]c1=O [Example 32, 1-(2-(2-Methoxyethoxy)phenyl)-5-phenyl-4-(piperazine-1-carbonyl)-1H-imidazol-2(3H)-one] |
| > 1000 nM | COCCOc1cccc(-n2c(-c3ccccc3)c(C(=O)N3CCNCC3)[nH]c2=O)c1 [Example 34, 1-(3-(2-Methoxyethoxy)phenyl)-5-phenyl-4-(piperazine-1-carbonyl)-1H-imidazol-2(3H)-one] |
| > 1000 nM | C=CCn1c(C(=O)N2CCNCC2)c(-c2ccccc2)n(-c2ccccc2C)c1=O [Example 141, 1-Allyl-4-phenyl-5-(piperazine-1-carbonyl)-3-o-tolyl-1H-imidazol-2(3H)-one] |
| < 100 nM | CCCCS(=O)(=O)Nc1ccccc1-n1c(-c2ccccc2)c(C(=O)N2CCNC[C@H]2Cc2ccccc2)[nH]c1=O [Example 128, (R)—N-(2-(4-(2-Benzylpiperazine-1-carbonyl)-2-oxo-5-phenyl-2,3-dihydro-1H-imidazol-1-yl)phenyl)butane-1-sulfonamide] |
| < 100 nM | O=C(c1c(-c2ccccc2)n(-c2ccccc2)c(=O)n1Cc1cccc(-n2cccc2)c1)N1CCNCC1 [Example 88, 1-(3-(1H-Pyrrol-1-yl)benzyl)-3,4-diphenyl-5-(piperazine-1-carbonyl)-1H-imidazol-2(3H)-one] |
| 100 to 500 nM | O=C(c1[nH]c(=O)n(-c2ccccc2NS(=O)(=O)C2CC2)c1-c1ccccc1)N1CCNC[C@H]1Cc1ccccc1 [Example 123, (R)—N-(2-(4-(2-Benzylpiperazine-1-carbonyl)-2-oxo-5-phenyl-2,3-dihydro-1H-imidazol-1-yl)phenyl)cyclopropanesulfonamide] |
| > 1000 nM | COC(=O)C(c1ccccc1)n1c(C(=O)N2CCNCC2)c(-c2ccccc2)n(C2CCCCC2)c1=O (centres unmarked) [Example 68, Methyl 2-(3-cyclohexyl-2-oxo-4-phenyl-5-(piperazine-1-carbonyl)-2,3-dihydro-1H-imidazol-1-yl)-2-phenylacetate] |
| > 1000 nM | Cn1c(C(=O)N2CCNCC2)c(-c2ccccc2)n(-c2ccccc2)c1=O [Example 54, 1-Methyl-3,4-diphenyl-5-(piperazine-1-carbonyl)-1H-imidazol-2(3H)-one] |

| IC50 | Structure (SMILES) |
| --- | --- |
| > 1000 nM | COc1ccccc1-n1c(-c2ccccc2)c(C(=O)N2CCNCC2)n(CCNC(=O)CC(C)C)c1=O [Example 169, N-(2-(3-(2-Methoxyphenyl)-2-oxo-4-phenyl-5-(piperazine-1-carbonyl)-2,3-dihydro-1H-imidazol-1-yl)ethyl)-3-methylbutanamide] |
| > 1000 nM | COc1ccc(S(=O)(=O)NCCn2c(C(=O)N3CCNCC3)c(-c3ccccc3)n(-c3ccccc3C)c2=O)cc1 [Example 210, 4-Methoxy-N-(2-(2-oxo-4-phenyl-5-(piperazine-1-carbonyl)-3-o-tolyl-2,3-dihydro-1H-imidazol-1-yl)ethyl)benzenesulfonamide] |
| 100 to 500 nM | COc1ccccc1NC(=O)NCCCn1c(C(=O)N2CCNCC2)c(-c2ccccc2)n(-c2ccccc2C)c1=O [Example 225, 1-(2-Methoxyphenyl)-3-(3-(2-oxo-4-phenyl-5-(piperazine-1-carbonyl)-3-o-tolyl-2,3-dihydro-1H-imidazol-1-yl)propyl)urea] |
| > 1000 nM | CC(C)c1c(C(=O)N2CCNCC2)[nH]c(=O)n1-c1ccccc1 [Example 23, 5-Isopropyl-1-phenyl-4-(piperazine-1-carbonyl)-1H-imidazol-2(3H)-one] |
| > 1000 nM | Cc1ccccc1-n1c(-c2ccccc2)c(C(=O)N2CCNCC2)n(CCCNC(=O)c2ccc(Cl)cc2)c1=O [Example 243, 4-Chloro-N-(3-(2-oxo-4-phenyl-5-(piperazine-1-carbonyl)-3-o-tolyl-2,3-dihydro-1H-imidazol-1-yl)propyl)benzamide] |
| 500 to 1000 nM | COc1ccc(S(=O)(=O)NCCCn2c(C(=O)N3CCNCC3)c(-c3ccccc3)n(-c3cccc(N4CCOCC4)c3)c2=O)cc1 [Example 199, 4-Methoxy-N-(3-(3-(3-morpholinophenyl)-2-oxo-4-phenyl-5-(piperazine-1-carbonyl)-2,3-dihydro-1H-imidazol-1-yl)propyl)benzenesulfonamide] |
| > 1000 nM | O=C(c1[nH]c(=O)n(-c2nc3ccccc3[nH]2)c1-c1ccccc1)N1CCNCC1 [Example 44, 1-(1H-benzo[d]imidazol-2-yl)-5-phenyl-4-(piperazine-1-carbonyl)-1H-imidazol-2(3H)-one] |
| > 1000 nM | Cc1ccccc1-n1c(-c2ccccc2)c(C(=O)N2CCNCC2)n(CCCNC(=O)c2ccccc2F)c1=O [Example 240, 2-Fluoro-N-(3-(2-oxo-4-phenyl-5-(piperazine-1-carbonyl)-3-o-tolyl-2,3-dihydro-1H-imidazol-1-yl)propyl)benzamide] |
| > 1000 nM | COC(=O)c1cccc(Cn2c(C(=O)N3CCNCC3)c(-c3ccccc3)n(-c3ccccc3)c2=O)c1 [Example 80, Methyl 3-((2-oxo-3,4-diphenyl-5-(piperazine-1-carbonyl)-2,3-dihydro-1H-imidazol-1-yl)methyl)benzoate] |
| > 1000 nM | Cc1ccccc1-n1c(-c2ccccc2)c(C(=O)N2CCNCC2)n(CCNC(=O)c2ccccc2Cl)c1=O [Example 231, 2-Chloro-N-(2-(2-oxo-4-phenyl-5-(piperazine-1-carbonyl)-3-o-tolyl-2,3-dihydro-1H-imidazol-1-yl)ethyl)benzamide] |
| > 1000 nM | O=C(c1[nH]c(=O)n(-c2ccccc2)c1-c1cccc(F)c1)N1CCNCC1 [Example 21, 5-(3-Fluorophenyl)-1-phenyl-4-(piperazine-1-carbonyl)-1H-imidazol-2(3H)-one] |
| < 100 nM | COCCCOc1cccc(-n2c(-c3ccccc3)c(C(=O)N3CCNCC3)n(Cc3cccc(Oc4ccccc4)c3)c2=O)c1 [Example 75, 1-(3-(3-Methoxypropoxy)phenyl)-3-(3-phenoxybenzyl)-5-phenyl-4-(piperazine-1-carbonyl)-1H-imidazol-2(3H)-one] |
| > 1000 nM | COc1ccccc1-n1c(-c2ccccc2)c(C(=O)N2CCNCC2)n(CCCNC(=O)c2ccccc2)c1=O [Example 159, N-(3-(3-(2-Methoxyphenyl)-2-oxo-4-phenyl-5-(piperazine-1-carbonyl)-2,3-dihydro-1H-imidazol-1-yl)propyl)benzamide] |
| > 1000 nM | Cc1ccccc1-n1c(-c2ccccc2)c(C(=O)N2CCNCC2)n(CCNC(=O)CC(C)C)c1=O [Example 238, 3-Methyl-N-(2-(2-oxo-4-phenyl-5-(piperazine-1-carbonyl)-3-o-tolyl-2,3-dihydro-1H-imidazol-1-yl)ethyl)butanamide] |
| > 1000 nM | C=CCn1c(C(=O)N2CCNCC2)c(-c2ccccc2)n(-c2cccc(N3CCOCC3)c2)c1=O [Example 150, 1-Allyl-3-(3-morpholinophenyl)-4-phenyl-5-(piperazine-1-carbonyl)-1H-imidazol-2(3H)-one] |
| > 1000 nM | Cc1ccccc1-n1c(-c2ccccc2)c(C(=O)N2CCNCC2)n(CCCNC(=O)c2ccccc2Cl)c1=O [Example 241, 2-Chloro-N-(3-(2-oxo-4-phenyl-5-(piperazine-1-carbonyl)-3-o-tolyl-2,3-dihydro-1H-imidazol-1-yl)propyl)benzamide] |
